The supplement of paper PMC10307832

Legend:
Test in all cases: relative viability (nuclei count vs DMSO), 5 days (fraction); higher = more cells survive
201T = test system: 201T
In short: (§1)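 Dosing by pin tool came one day after lung cancer cell lines were seeded in 1536-well plates, using either one drug or a fixed anchor-drug dose plus five library-drug doses (not always all listed) in √10 steps. After 5 days, nuclei were counted on 4× images. Relative viability is treated-well nuclei count divided by vehicle-well nuclei count, and values are medians of duplicate plates.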

CAL-12T = test system: CAL-12T
In short: as §1

ChaGo-K-1 = test system: ChaGo-K-1
In short: as §1

EMC-BAC-2 = test system: EMC-BAC-2
In short: as §1

H3255 = test system: H3255
In short: as §1

HOP-62 = test system: HOP-62
In short: as §1

LXF-289 = test system: LXF-289
In short: as §1

NCI-H1437 = test system: NCI-H1437
In short: as §1

NCI-H1651 = test system: NCI-H1651
In short: as §1

NCI-H1734 = test system: NCI-H1734
In short: as §1

NCI-H1755 = test system: NCI-H1755
In short: as §1

NCI-H1975 = test system: NCI-H1975
In short: as §1

NCI-H2023 = test system: NCI-H2023
In short: as §1

NCI-H2085 = test system: NCI-H2085
In short: as §1

NCI-H2342 = test system: NCI-H2342
In short: as §1

NCI-H2347 = test system: NCI-H2347
In short: as §1

NCI-H23 = test system: NCI-H23
In short: as §1

NCI-H2405 = test system: NCI-H2405
In short: as §1

NCI-H441 = test system: NCI-H441
In short: as §1

NCI-H460 = test system: NCI-H460
In short: as §1

NCI-H838 = test system: NCI-H838
In short: as §1

SW 900 = test system: SW 900
In short: as §1

UMC-11 = test system: UMC-11
In short: as §1

For `Oc1nc(-c2ccc(C(F)(F)F)cc2)nc2c1CSCC2` [XAV939] + O=C(CCCCCCC(=O)Nc1ccccc1)NO [Vorinostat] (partner 1 µM), the relative viability (201T; first compound 0.08 µM) was 1.07, the relative viability (201T; first compound 0.253 µM) was 0.794 and the relative viability (201T; first compound 0.8 µM) was 0.832. For the same compound, the relative viability (201T; first compound 2.53 µM) was 0.779, the relative viability (CAL-12T; first compound 0.08 µM) was 0.984 and the relative viability (CAL-12T; first compound 0.253 µM) was 0.483. It also gave a relative viability (CAL-12T; first compound 0.8 µM) of 0.823, a relative viability (CAL-12T; first compound 2.53 µM) of 0.381 and a relative viability (ChaGo-K-1; first compound 0.08 µM) of 0.751. It also gave a relative viability (ChaGo-K-1; first compound 0.253 µM) of 0.707, a relative viability (ChaGo-K-1; first compound 0.8 µM) of 0.747 and a relative viability (ChaGo-K-1; first compound 2.53 µM) of 0.643. It also gave a relative viability (EMC-BAC-2; first compound 0.08 µM) of 0.175, a relative viability (EMC-BAC-2; first compound 0.253 µM) of 0.447 and a relative viability (EMC-BAC-2; first compound 0.8 µM) of 0.379. For the same compound, the relative viability (EMC-BAC-2; first compound 2.53 µM) was 0.289, the relative viability (H3255; first compound 0.08 µM) was 0.809 and the relative viability (H3255; first compound 0.253 µM) was 0.692. The relative viability (H3255; first compound 0.8 µM) was 0.648, the relative viability (H3255; first compound 2.53 µM) was 0.712 and the relative viability (HOP-62; first compound 0.08 µM) was 0.888. It also gave a relative viability (HOP-62; first compound 0.253 µM) of 0.525, a relative viability (HOP-62; first compound 0.8 µM) of 0.501 and a relative viability (HOP-62; first compound 2.53 µM) of 0.311. It also gave a relative viability (LXF-289; first compound 0.08 µM) of 0.728, a relative viability (LXF-289; first compound 0.253 µM) of 0.68 and a relative viability (LXF-289; first compound 0.8 µM) of 0.804. It also gave a relative viability (LXF-289; first compound 2.53 µM) of 0.8, a relative viability (NCI-H1437; first compound 0.08 µM) of 0.834 and a relative viability (NCI-H1437; first compound 0.253 µM) of 0.649. It also gave a relative viability (NCI-H1437; first compound 0.8 µM) of 0.62, a relative viability (NCI-H1437; first compound 2.53 µM) of 0.477 and a relative viability (NCI-H1651; first compound 0.08 µM) of 0.546. It also gave a relative viability (NCI-H1651; first compound 0.253 µM) of 0.529, a relative viability (NCI-H1651; first compound 0.8 µM) of 0.555 and a relative viability (NCI-H1651; first compound 2.53 µM) of 0.512. It also gave a relative viability (NCI-H1734; first compound 0.08 µM) of 0.98, a relative viability (NCI-H1734; first compound 0.253 µM) of 0.835 and a relative viability (NCI-H1734; first compound 0.8 µM) of 0.757. For the same compound, the relative viability (NCI-H1734; first compound 2.53 µM) was 0.803, the relative viability (NCI-H1755; first compound 0.08 µM) was 0.783 and the relative viability (NCI-H1755; first compound 0.253 µM) was 0.729. It also gave a relative viability (NCI-H1755; first compound 0.8 µM) of 0.74, a relative viability (NCI-H1755; first compound 2.53 µM) of 0.602 and a relative viability (NCI-H1975; first compound 0.08 µM) of 0.784. For the same compound, the relative viability (NCI-H1975; first compound 0.253 µM) was 0.588, the relative viability (NCI-H1975; first compound 0.8 µM) was 0.673 and the relative viability (NCI-H1975; first compound 2.53 µM) was 0.667. It also gave a relative viability (NCI-H2023; first compound 0.08 µM) of 0.795, a relative viability (NCI-H2023; first compound 0.253 µM) of 0.552 and a relative viability (NCI-H2023; first compound 0.8 µM) of 0.574. For the same compound, the relative viability (NCI-H2023; first compound 2.53 µM) was 0.461, the relative viability (NCI-H2085; first compound 0.08 µM) was 0.741 and the relative viability (NCI-H2085; first compound 0.253 µM) was 0.736. The relative viability (NCI-H2085; first compound 0.8 µM) was 0.789, the relative viability (NCI-H2085; first compound 2.53 µM) was 0.716 and the relative viability (NCI-H2342; first compound 0.08 µM) was 0.791. It also gave a relative viability (NCI-H2342; first compound 0.253 µM) of 0.705, a relative viability (NCI-H2342; first compound 0.8 µM) of 0.768 and a relative viability (NCI-H2342; first compound 2.53 µM) of 0.533. For the same compound, the relative viability (NCI-H2347; first compound 0.08 µM) was 0.609, the relative viability (NCI-H2347; first compound 0.253 µM) was 0.496 and the relative viability (NCI-H2347; first compound 0.8 µM) was 0.593. It also gave a relative viability (NCI-H2347; first compound 2.53 µM) of 0.414, a relative viability (NCI-H23; first compound 0.08 µM) of 0.684 and a relative viability (NCI-H23; first compound 0.8 µM) of 0.66. For the same compound, the relative viability (NCI-H23; first compound 2.53 µM) was 0.415, the relative viability (NCI-H2405; first compound 0.08 µM) was 0.639 and the relative viability (NCI-H2405; first compound 0.253 µM) was 0.922. It also gave a relative viability (NCI-H2405; first compound 0.8 µM) of 0.913, a relative viability (NCI-H2405; first compound 2.53 µM) of 0.925 and a relative viability (NCI-H441; first compound 0.08 µM) of 1.02. The relative viability (NCI-H441; first compound 0.253 µM) was 0.822, the relative viability (NCI-H441; first compound 0.8 µM) was 1.09 and the relative viability (NCI-H441; first compound 2.53 µM) was 0.782. It also gave a relative viability (NCI-H460; first compound 0.08 µM) of 0.943, a relative viability (NCI-H460; first compound 0.253 µM) of 0.46 and a relative viability (NCI-H460; first compound 0.8 µM) of 0.649. The relative viability (NCI-H460; first compound 2.53 µM) was 0.433, the relative viability (NCI-H838; first compound 0.08 µM) was 0.685 and the relative viability (NCI-H838; first compound 0.253 µM) was 0.609. It also gave a relative viability (NCI-H838; first compound 0.8 µM) of 0.658, a relative viability (NCI-H838; first compound 2.53 µM) of 0.558 and a relative viability (SW 900; first compound 0.253 µM) of 0.528. The relative viability (SW 900; first compound 0.8 µM) was 0.494, the relative viability (SW 900; first compound 2.53 µM) was 0.373 and the relative viability (UMC-11; first compound 0.08 µM) was 0.364. For the same compound, the relative viability (UMC-11; first compound 0.253 µM) was 0.267, the relative viability (UMC-11; first compound 0.8 µM) was 0.305 and the relative viability (UMC-11; first compound 2.53 µM) was 0.274.
